ChEMBL document CHEMBL1759834, “Synthesis, stereochemistry, antimicrobial evaluation and QSAR studies of 2,6-diaryltetrahydropyran-4-one thiosemicarbazones” (2011)
In brackets after ≈: the same amount, converted by molar mass.

What was measured:
Staphylococcus aureus = assay: Antibacterial activity against Staphylococcus aureus ATCC 25825 after 24 hrs by twofold serial dilution method; type: functional; settings: for MIC: Staphylococcus aureus, ATCC 25825, 24 h
Escherichia coli = assay: Antibacterial activity against Escherichia coli ATCC 25835 after 24 hrs by twofold serial dilution method; type: functional; settings: for MIC: Escherichia coli, ATCC 25835, 24 h
Cryptococcus neoformans = assay: Antifungal activity against Cryptococcus neoformans after 72 to 96 hrs by twofold serial dilution method; type: functional; settings: for MIC: Cryptococcus neoformans
Aspergillus niger = assay: Antifungal activity against Aspergillus niger after 72 to 96 hrs by twofold serial dilution method; type: functional; settings: for MIC: Aspergillus niger
Bacillus subtilis = assay: Antibacterial activity against Bacillus subtilis ATCC 451 after 24 hrs by twofold serial dilution method; type: functional; settings: for MIC: Bacillus subtilis, ATCC 451, 24 h
Klebsiella pneumoniae = assay: Antibacterial activity against Klebsiella pneumoniae ATCC 15490 after 24 hrs by twofold serial dilution method; type: functional; settings: for MIC: Klebsiella pneumoniae, ATCC 15490, 24 h
Pseudomonas aeruginosa = assay: Antibacterial activity against Pseudomonas aeruginosa ATCC 10145 after 24 hrs by twofold serial dilution method; type: functional; settings: for MIC: Pseudomonas aeruginosa, ATCC 10145, 24 h
Salmonella typhi = assay: Antibacterial activity against Salmonella typhi ATCC 24915 after 24 hrs by twofold serial dilution method; type: functional, Salmonella enterica subsp. enterica serovar Typhi; settings: Salmonella enterica, ATCC 24915, 24 h
Candida albicans = assay: Antifungal activity against Candida albicans after 24 hrs by twofold serial dilution method; type: functional; settings: for MIC: Candida albicans, 24 h

Row | Structure (SMILES) | -logMIC (Staphylococcus aureus) | MIC (Staphylococcus aureus) | -logMIC (Escherichia coli) | MIC (Escherichia coli) | -logMIC (Cryptococcus neoformans) | MIC (Cryptococcus neoformans) | -logMIC (Aspergillus niger) | MIC (Aspergillus niger) | -logMIC (Bacillus subtilis) | MIC (Bacillus subtilis) | -logMIC (Klebsiella pneumoniae) | MIC (Klebsiella pneumoniae) | -logMIC (Pseudomonas aeruginosa) | MIC (Pseudomonas aeruginosa) | MIC (Salmonella typhi) | -logMIC (Candida albicans) | MIC (Candida albicans)
1 | Cc1ccc([C@H]2O[C@@H](c3ccc(C)cc3)[C@H](C)/C(=N/NC(N)=S)[C@H]2C)cc1 | 4.301 | 50 µg/mL (≈ 131 µM) | 4.602 | 25 µg/mL (≈ 65.5 µM) | 4 | 100 µg/mL (≈ 262 µM) | 4.301 | 50 µg/mL (≈ 131 µM) | 4.301 | 50 µg/mL (≈ 131 µM) | 4 | 100 µg/mL (≈ 262 µM) | 4 | 100 µg/mL (≈ 262 µM) | 50 µg/mL (≈ 131 µM) | 4 | 100 µg/mL (≈ 262 µM)
2 | C[C@@H]1/C(=N\NC(=S)Nc2ccccc2)[C@@H](C)[C@H](c2ccc(Br)cc2)O[C@@H]1c1ccc(Br)cc1 | 4.602 | 25 µg/mL (≈ 42.6 µM) | 4 | 100 µg/mL (≈ 170 µM) | 4.903 | 12.5 µg/mL (≈ 21.3 µM) | 4.602 | 25 µg/mL (≈ 42.6 µM) | 4.602 | 25 µg/mL (≈ 42.6 µM) | 4.602 | 25 µg/mL (≈ 42.6 µM) | 5.204 | 6.25 µg/mL (≈ 10.6 µM) | 12.5 µg/mL (≈ 21.3 µM) | 5.204 | 6.25 µg/mL (≈ 10.6 µM)
3 | CC[C@@H]1/C(=N/NC(=S)Nc2ccccc2)C[C@@H](c2ccccc2)O[C@H]1c1ccccc1 | 4.301 | 50 µg/mL (≈ 116 µM) | 4 | 100 µg/mL (≈ 233 µM) | 4.903 | 12.5 µg/mL (≈ 29.1 µM) | 4.301 | 50 µg/mL (≈ 116 µM) | 4 | 100 µg/mL (≈ 233 µM) | 4 | 100 µg/mL (≈ 233 µM) | 4.602 | 25 µg/mL (≈ 58.2 µM) | 50 µg/mL (≈ 116 µM) | 4 | 100 µg/mL (≈ 233 µM)
4 | C[C@@H]1/C(=N\NC(N)=S)[C@@H](C)[C@H](c2ccc(Cl)cc2)O[C@@H]1c1ccc(Cl)cc1 | 4.602 | 25 µg/mL (≈ 59.2 µM) | 4.301 | 50 µg/mL (≈ 118 µM) | 4.602 | 25 µg/mL (≈ 59.2 µM) | 4 | 100 µg/mL (≈ 237 µM) | 4.602 | 25 µg/mL (≈ 59.2 µM) | 4.602 | 25 µg/mL (≈ 59.2 µM) | 4.301 | 50 µg/mL (≈ 118 µM) | 25 µg/mL (≈ 59.2 µM) | 4.602 | 25 µg/mL (≈ 59.2 µM)
5 | C[C@@H]1/C(=N\NC(=S)Nc2ccccc2)[C@@H](C)[C@H](c2ccccc2Cl)O[C@@H]1c1ccccc1Cl | 4.301 | 50 µg/mL (≈ 100 µM) | 4.602 | 25 µg/mL (≈ 50.2 µM) | 4.602 | 25 µg/mL (≈ 50.2 µM) | 3.698 | 200 µg/mL (≈ 401 µM) | 4.301 | 50 µg/mL (≈ 100 µM) | 4.903 | 12.5 µg/mL (≈ 25.1 µM) | 4.301 | 50 µg/mL (≈ 100 µM) | 25 µg/mL (≈ 50.2 µM) | 4.301 | 50 µg/mL (≈ 100 µM)
